Target: T1, human AMPK α2β2γ3 (Homo sapiens, UniProt O43741+P54646+Q9UGI9)
T1 construct: expressed in transfected cells; host or cells: HEK293AD cells, MaxCyte bulk electroporation
Test: Primary cellular assay: γ3 associated phospho-Thr172 AMPK detection (custom pAMPK Surefire AlphaLISA) in α2β2γ3 bulk transiently transfected HEK293 cells
Type: cell-based
Details: activation of human AMPK α2β2γ3 (γ3 pThr172 AMPK signal) in transiently transfected HEK293 cells, 20 minutes compound incubation; for Emax: 20 min, read-out: Assay GMean Asy. Max (%); for EC50: geometric mean EC50, read-out: Assay GMean EC50
Method in brief: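 Transiently co-transfected (α2/β2/γ3 plasmids, electroporation) HEK293AD cells, plated 2 days in low-glucose DMEM+10% FBS, treated 20 min with compounds (11-point half-log dilutions). Lysates read by modified AlphaLISA capturing γ3 with pThr172 antibody detection. % effect relative to 30 μM HPE and DMSO; EC50 and Emax from curve fit.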

[1] = geometric mean of the asymptotic max

T1 sequence (P54646 whole entry): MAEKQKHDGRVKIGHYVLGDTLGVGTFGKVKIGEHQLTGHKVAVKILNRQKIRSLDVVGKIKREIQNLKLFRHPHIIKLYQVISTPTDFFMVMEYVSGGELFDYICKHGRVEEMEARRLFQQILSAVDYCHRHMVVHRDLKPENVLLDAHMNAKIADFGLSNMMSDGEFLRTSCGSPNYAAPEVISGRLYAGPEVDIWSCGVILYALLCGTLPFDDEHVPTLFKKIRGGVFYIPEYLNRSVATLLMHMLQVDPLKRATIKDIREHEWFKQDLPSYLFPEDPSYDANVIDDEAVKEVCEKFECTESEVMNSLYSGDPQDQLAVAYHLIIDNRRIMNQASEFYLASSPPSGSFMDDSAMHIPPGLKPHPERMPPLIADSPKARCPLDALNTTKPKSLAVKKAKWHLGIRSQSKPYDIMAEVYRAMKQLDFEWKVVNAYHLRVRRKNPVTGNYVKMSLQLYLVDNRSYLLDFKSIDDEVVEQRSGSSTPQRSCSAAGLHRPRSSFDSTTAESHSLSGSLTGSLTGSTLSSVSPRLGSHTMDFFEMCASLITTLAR
T1 sequence (O43741 whole entry): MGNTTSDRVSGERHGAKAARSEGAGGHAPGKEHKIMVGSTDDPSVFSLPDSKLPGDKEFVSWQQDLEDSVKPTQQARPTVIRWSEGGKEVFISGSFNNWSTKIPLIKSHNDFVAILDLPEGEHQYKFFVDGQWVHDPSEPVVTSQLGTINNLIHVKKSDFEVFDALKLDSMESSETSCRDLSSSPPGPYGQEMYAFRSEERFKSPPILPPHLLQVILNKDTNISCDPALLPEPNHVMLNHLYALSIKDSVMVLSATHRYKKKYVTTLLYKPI
T1 sequence (Q9UGI9 whole entry): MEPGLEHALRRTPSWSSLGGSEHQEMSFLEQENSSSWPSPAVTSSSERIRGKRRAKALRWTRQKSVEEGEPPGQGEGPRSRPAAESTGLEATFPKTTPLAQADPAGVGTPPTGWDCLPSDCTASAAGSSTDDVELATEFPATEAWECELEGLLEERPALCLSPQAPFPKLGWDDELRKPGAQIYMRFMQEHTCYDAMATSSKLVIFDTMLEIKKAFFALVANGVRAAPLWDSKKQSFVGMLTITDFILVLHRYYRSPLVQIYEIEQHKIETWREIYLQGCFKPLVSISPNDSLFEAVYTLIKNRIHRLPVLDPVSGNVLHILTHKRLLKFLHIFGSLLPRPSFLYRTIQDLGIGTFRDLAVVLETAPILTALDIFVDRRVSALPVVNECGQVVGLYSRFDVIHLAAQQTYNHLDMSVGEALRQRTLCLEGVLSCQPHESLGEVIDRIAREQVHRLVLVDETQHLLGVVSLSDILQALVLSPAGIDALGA

`C[C@@H](O)c1ccc(N2C[C@](C)(c3cccc(Cl)c3F)c3c(cnc(NC4CN(C(=O)[C@@H]5C[C@@H]5F)C4)c3F)C2=O)nc1` [Example 18, (4R)-4-(3-Chloro-2-fluorophenyl)-5-fluoro-6-({1-[(1S,2S)-2-fluorocyclopropane-1-carbonyl]azetidin-3-yl}amino)-2-{5-[(1R)-1-hydroxyethyl]pyridin-2-yl}-4-methyl-3,4-dihydro-2,7-naphthyridin-1(2H)-one] gave an Emax [1] of 79.2% and an EC50 of 0.165 µM.
For `C[C@]1(c2cccc(Cl)c2F)CN(c2ncccc2F)C(=O)c2cnc(NC3CN(C(N)=O)C3)c(F)c21` [Example 19, 3-{[(5R)-5-(3-Chloro-2-fluorophenyl)-4-fluoro-7-(3-fluoropyridin-2-yl)-5-methyl-8-oxo-5,6,7,8-tetrahydro-2,7-naphthyridin-3-yl]amino}azetidine-1-carboxamide], the Emax [1] was 31.3% and the EC50 was 0.0872 µM.
Work on `CNC(=O)N1CC(Nc2ncc3c(c2F)[C@@](C)(c2cccc(Cl)c2F)CN(c2ncccc2F)C3=O)C1` [Example 20, 3-{[(5R)-5-(3-Chloro-2-fluorophenyl)-4-fluoro-7-(3-fluoropyridin-2-yl)-5-methyl-8-oxo-5,6,7,8-tetrahydro-2,7-naphthyridin-3-yl]amino}-N-methylazetidine-1-carboxamide] yielded an Emax [1] of 43.1% and an EC50 of 0.0239 µM.
Work on `Cn1cc(F)c(N2C[C@](C)(c3cccc(Cl)c3F)c3c(cnc(NC4CN(C(=O)N5C[C@@H]6C[C@H]5CO6)C4)c3F)C2=O)n1` [Example 21, (4R)-4-(3-chloro-2-fluorophenyl)-5-fluoro-2-(4-fluoro-1-methyl-1H-pyrazol-3-yl)-4-methyl-6-({1-[(1S,4S)-2-oxa-5-azabicyclo[2.2.1]heptane-5-carbonyl]azetidin-3-yl}amino)-3,4-dihydro-2,7-naphthyridin-1(2H)-one] yielded an Emax [1] of 142% and an EC50 of 0.0398 µM.
For `C[C@]1(c2cccc(Cl)c2F)CN(c2ccc(CO)cn2)C(=O)c2cnc(NC3CN(C(=O)N4C[C@@H]5C[C@H]4CO5)C3)c(F)c21` [Example 22, (4R)-4-(3-Chloro-2-fluorophenyl)-5-fluoro-2-[5-(hydroxymethyl)pyridin-2-yl]-4-methyl-6-({1-[(1 S,4S)-2-oxa-5-azabicyclo[2.2.1]heptane-5-carbonyl]azetidin-3-yl}amino)-3,4-dihydro-2,7-naphthyridin-1(2H)-one], the Emax [1] was 136% and the EC50 was 0.0447 µM.
For `CC1(c2cccc(F)c2F)CN(c2ccccc2)C(=O)c2cnc(NC3CN(C(=O)CN4CCCC4)C3)nc21` (stereo not shown) [Example 33, 8-(2,3-Difluorophenyl)-8-methyl-6-phenyl-2-({1-[(pyrrolidin-1-γ1)acetyl]azetidin-3-yl}amino)-7,8-dihydropyrido[4,3-d]pyrimidin-5(6H)-one], the Emax [1] was 104% and the EC50 was 0.906 µM.
For `Cn1cc(F)c(N2CC(C)(c3cccc(Cl)c3F)c3c(ccc(NC4CN(C5CCCNC5=O)C4)c3F)C2=O)n1` (stereo not shown) [Example 35, 4-(3-Chloro-2-fluorophenyl)-5-fluoro-2-(4-fluoro-1-methyl-1H-pyrazol-3-yl)-4-methyl-6-{[1-(2-oxopiperidin-3-γ1)azetidin-3-yl]amino}-3,4-dihydroisoquinolin-1(2H)-one], the EC50 was 0.0272 µM and the “Assay GMean Asy. Max (%)” value [1] was 119%.
Work on `Cn1cc(F)c(N2CC(C)(c3cccc(Cl)c3F)c3c(ccc(NC4CN(C5CCCNC5=O)C4)c3F)C2=O)n1` (stereo not shown) [Example 36, 4-(3-Chloro-2-fluorophenyl)-5-fluoro-2-(4-fluoro-1-methyl-1H-pyrazol-3-yl)-4-methyl-6-{[1-(2-oxopiperidin-3-γ1)azetidin-3-yl]amino}-3,4-dihydroisoquinolin-1(2H)-one] yielded an Emax [1] of 96.5% and an EC50 of 0.149 µM.
For `C[C@]1(c2cccc(Cl)c2F)CN(c2n[nH]cc2F)C(=O)c2cnc(NC3CN(C(=O)[C@@H]4C[C@@H]4F)C3)c(F)c21` [Example 112, (4R)-4-(3-chloro-2-fluorophenyl)-5-fluoro-6-({1-[(1S,2S)-2-fluorocyclopropane-1-carbonyl]azetidin-3-yl}amino)-2-(4-fluoro-1H-pyrazol-3-yl)-4-methyl-3,4-dihydro-2,7-naphthyridin-1(2H)-one], the Emax [1] was 72.1% and the EC50 was 0.899 µM.
Molecule `Cn1cc(F)c(N2C[C@](C)(c3cccc(Cl)c3F)c3c(cnc(NC4CN(C(=O)[C@@H]5CC5(F)F)C4)c3F)C2=O)n1` [compound 39, (4R)-4-(3-chloro-2-fluorophenyl)-6-({1-[(1S)-2,2-difluorocyclopropane-1-carbonyl]azetidin-3-yl}amino)-5-fluoro-2-(4-fluoro-1-methyl-1H-pyrazol-3-yl)-4-methyl-3,4-dihydro-2,7-naphthyridin-1(2H)-one] has an Emax [1] of 91.2% and an EC50 of 0.0687 µM.
`C[C@@H](O)C(=O)N1CC(Nc2ncc3c(c2F)[C@@](C)(c2cccc(Cl)c2F)CN(c2nn(C)cc2F)C3=O)C1` [compound 40, (4R)-4-(3-chloro-2-fluorophenyl)-5-fluoro-2-(4-fluoro-1-methyl-1H-pyrazol-3-yl)-6-({1-[(2R)-2-hydroxypropanoyl]azetidin-3-yl}amino)-4-methyl-3,4-dihydro-2,7-naphthyridin-1(2H)-one] gave an Emax [1] of 58.8% and an EC50 of 0.113 µM.
Molecule `CN(C)CC(=O)N1CC(Nc2ncc3c(c2F)[C@@](C)(c2cccc(Cl)c2F)CN(c2nn(C)cc2F)C3=O)C1` [compound 41, (4R)-4-(3-chloro-2-fluorophenyl)-6-({1-[(dimethylamino)acetyl]azetidin-3-yl}amino)-5-fluoro-2-(4-fluoro-1-methyl-1H-pyrazol-3-yl)-4-methyl-3,4-dihydro-2,7-naphthyridin-1(2H)-one] has an Emax [1] of 80.2% and an EC50 of 0.12 µM.
In the case of `C[C@]1(c2cccc(Cl)c2F)CN(c2ccc(CCO)cn2)C(=O)c2cnc(NC3CN(C(=O)[C@@H]4C[C@@H]4F)C3)c(F)c21` [compound 48, (4R)-4-(3-chloro-2-fluorophenyl)-5-fluoro-6-({1-[(1S,2S)-2-fluorocyclopropane-1-carbonyl]azetidin-3-yl}amino)-2-[5-(2-hydroxyethyl)pyridin-2-yl]-4-methyl-3,4-dihydro-2,7-naphthyridin-1(2H)-one], the Emax [1] is reported as 71.4% and the EC50 is reported as 0.11 µM.
`C[C@H](O)c1ccc(N2C[C@](C)(c3cccc(Cl)c3F)c3c(cnc(NC4CN(C(=O)[C@@H]5C[C@@H]5F)C4)c3F)C2=O)nc1` [compound 49, (4R)-4-(3-chloro-2-fluorophenyl)-5-fluoro-6-({1-[(1S,2S)-2-fluorocyclopropane-1-carbonyl]azetidin-3-yl}amino)-2-{5-[(1S)-1-hydroxyethyl]pyridin-2-yl}-4-methyl-3,4-dihydro-2,7-naphthyridin-1(2H)-one] gave an Emax [1] of 77.3% and an EC50 of 0.0639 µM.
Molecule `C[C@]1(c2cccc(Cl)c2F)CN(c2ccc(OC(F)F)cn2)C(=O)c2cnc(NC3CN(C(=O)[C@@H]4C[C@@H]4F)C3)c(F)c21` [compound 50, (4R)-4-(3-chloro-2-fluorophenyl)-2-[5-(difluoromethoxy)pyridin-2-yl]-5-fluoro-6-({1-[(1S,2S)-2-fluorocyclopropane-1-carbonyl]azetidin-3-yl}amino)-4-methyl-3,4-dihydro-2,7-naphthyridin-1(2H)-one] has an Emax [1] of 63.7% and an EC50 of 0.233 µM.
For `CNc1ccc(N2C[C@](C)(c3cccc(Cl)c3F)c3c(cnc(NC4CN(C(=O)[C@@H]5C[C@@H]5F)C4)c3F)C2=O)nc1` [compound 51, (4R)-4-(3-chloro-2-fluorophenyl)-5-fluoro-6-({1-[(1S,2S)-2-fluorocyclopropane-1-carbonyl]azetidin-3-yl}amino)-4-methyl-2-[5-(methylamino)pyridin-2-yl]-3,4-dihydro-2,7-naphthyridin-1(2H)-one], the Emax [1] was 63.2% and the EC50 was 0.0491 µM.
Work on `C[C@]1(c2cccc(Cl)c2F)CN(c2ccc(CO)cn2)C(=O)c2cnc(NC3CN(C(=O)[C@@H]4C[C@@H]4F)C3)c(F)c21` [compound 52, (4R)-4-(3-chloro-2-fluorophenyl)-5-fluoro-6-({1-[(1S,2S)-2-fluorocyclopropane-1-carbonyl]azetidin-3-yl}amino)-2-[5-(hydroxymethyl)pyridin-2-yl]-4-methyl-3,4-dihydro-2,7-naphthyridin-1(2H)-one] yielded an Emax [1] of 65.4% and an EC50 of 0.0474 µM.
In the case of `C[C@]1(c2cccc(Cl)c2F)CN(c2ccc([C@@H]3COCCN3)cc2)C(=O)c2cnc(NC3CN(C(=O)[C@@H]4C[C@@H]4F)C3)c(F)c21` [compound 53, (4R)-4-(3-chloro-2-fluorophenyl)-5-fluoro-6-({1-[(1S,2S)-2-fluorocyclopropane-1-carbonyl]azetidin-3-yl}amino)-4-methyl-2-{4-[(3R)-morpholin-3-yl]phenyl}-3,4-dihydro-2,7-naphthyridin-1(2H)-one], the Emax [1] is reported as 91% and the EC50 is reported as 0.131 µM.
`Cn1ccc(N2C[C@](C)(c3cccc(Cl)c3F)c3c(cnc(NC4CN(C(=O)[C@@H]5C[C@@H]5F)C4)c3F)C2=O)n1` [compound 54, (4R)-4-(3-chloro-2-fluorophenyl)-5-fluoro-6-({1-[(1S,2S)-2-fluorocyclopropane-1-carbonyl]azetidin-3-yl}amino)-4-methyl-2-(1-methyl-1H-pyrazol-3-yl)-3,4-dihydro-2,7-naphthyridin-1(2H)-one] was tested, and the Emax [1] was 79.5% and the EC50 was 0.0581 µM.
`C[C@]1(c2cccc(Cl)c2F)CN(c2cc(OC(F)F)ccn2)C(=O)c2cnc(NC3CN(C(=O)[C@@H]4C[C@@H]4F)C3)c(F)c21` [compound 55, (4R)-4-(3-chloro-2-fluorophenyl)-2-[4-(difluoromethoxy)pyridin-2-yl]-5-fluoro-6-({1-[(1S,2S)-2-fluorocyclopropane-1-carbonyl]azetidin-3-yl}amino)-4-methyl-3,4-dihydro-2,7-naphthyridin-1(2H)-one] was tested, and the Emax [1] was 30.9% and the EC50 was 0.024 µM.
